ChEMBL document CHEMBL1154790, “Lorneic acids, trialkyl-substituted aromatic acids from a marine-derived actinomycete” (J Nat Prod, 2009)
Calls of active or inactive are those of the source. The calls are words filed in the database; no cut-off is given here.

Tests used:
[1] = target: T1, cGMP-specific 3',5'-cyclic phosphodiesterase (Homo sapiens, UniProt O76074); assay: Inhibition of human platelet PDE5 assessed as [3H]cGMP to [3H]GMP conversion pretreated 15 mins before substrate addition measured after 20 mins
[2] = target: T1, cGMP-specific 3',5'-cyclic phosphodiesterase; assay: Inhibition of human platelet PDE5 assessed as [3H]cGMP to [3H]GMP conversion at 10 uM pretreated 15 mins before substrate addition measured after 20 mins

## CCCC/C=C/c1cc(C)ccc1/C=C/CC(=O)O [LORNEIC ACID A]
[1]
  IC50: 12.6 µM
[2]
  inhibition: Active

## CCCCCC(O)c1cc(C)ccc1/C=C/CC(=O)O (stereo not drawn) [LORNEIC ACID B]
[1]
  IC50: 87.1 µM
